From ChEMBL document CHEMBL1152643, “Tedanol: a potent anti-inflammatory ent-pimarane diterpene from the Caribbean Sponge Tedania ignis” (Bioorg Med Chem, 2009) come the findings set out here.

The source made the active and inactive calls. No cut-off for these calls is given here.

Assay type in all cases: functional, organism-based
The subject of assay [1] is Mus musculus. Briefly: Antiinflammatory activity in ip dosed CD1 mouse assessed as inhibition of carrageenan-induced paw edema by hydroplethismometer. For orientation: The carrageenan paw model is a standard test of acute inflammation.
The test system of assay [2] is Mus musculus. In words: Antiinflammatory activity against carrageenan-induced inflammation in CD1 mouse assessed as inhibition of MPO activity at 1 mg/kg, ip after 4 hrs. More on the design: dose 1 mg/kg.
Assay [3] deals with Mus musculus. In words: Antiinflammatory activity against carrageenan-induced inflammation in CD1 mouse assessed as inhibition of MPO activity at 1 mg/kg, ip after 48 hrs. Details: dose 1 mg/kg.
Assay [4] has as its system Mus musculus. Briefly: Antiinflammatory activity against carrageenan-induced inflammation in CD1 mouse assessed as inhibition of COX2 activity in early edema phase at 1 mg/kg, ip after 2 to 4 hrs by Western blot. Details: dose 1 mg/kg.
Assay [5] concerns Mus musculus. Briefly: Antiinflammatory activity against carrageenan-induced inflammation in CD1 mouse assessed as inhibition of COX2 activity in second edema phase at 1 mg/kg, ip after 24 to 72 hrs by Western blot. Details: dose 1 mg/kg.
The subject of assay [6] is Mus musculus. In words: Antiinflammatory activity against carrageenan-induced inflammation in CD1 mouse assessed as inhibition of COX1 activity in second edema phase at 1 mg/kg, ip after 2 to 4 hrs by Western blot. More on the design: dose 1 mg/kg. (A western blot detects proteins with antibodies after separation by electrophoresis.)
In assay [7] the test system is Mus musculus. In words: Antiinflammatory activity against carrageenan-induced inflammation in CD1 mouse assessed as inhibition of COX1 activity in second edema phase at 1 mg/kg, ip after 24 to 72 hrs by Western blot. More on the design: dose 1 mg/kg.
For assay [8], the system named is Mus musculus. In words: Antiinflammatory activity against carrageenan-induced inflammation in CD1 mouse assessed as inhibition of iNOS expression at 1 mg/kg, ip after 2 hrs by Western blot. Details: dose 1 mg/kg.
Assay [9] relates to Mus musculus. In words: Antiinflammatory activity against carrageenan-induced inflammation in CD1 mouse assessed as inhibition of iNOS expression at 1 mg/kg, ip after 48 hrs by Western blot. Details: dose 1 mg/kg.

Regarding `CC1(C)[C@H](Br)CC[C@@]2(C)C3=CC[C@](C)([C@@H](Br)COS(=O)(=O)O)C[C@H]3[C@H](O)C[C@H]12`, the Activity result in the assay with Mus musculus [1] is “Dose-dependent effect”. Also, the outcome with Mus musculus [2], with Mus musculus [3], in the assay on Mus musculus [4], with Mus musculus [5], in the assay with Mus musculus [7] and in the assay on Mus musculus [8] was Active. In the assay on Mus musculus [9], the result was Active. Besides, the result in the assay with Mus musculus [6] was inactive.
